Source: PubChem BioAssay AID248 (DTP/NCI, 2004)
Where “and” joins values, the source holds several entries; their conditions need not be identical. Identical values can stand only once. Toxic doses and inconclusive results are not listed. No stated cut-off is given here; in the data, active means T/C of 150% or more; inactive means T/C below 125%.

System: L1210 leukemia ip in BDF1 mice, survival T/C
Test: NCI In Vivo Anticancer Drug Screen. Data for tumor model L1210 Leukemia (intraperitoneal) in B6D2F1 (BDF1) mice
Settings: endpoint: mean survival time, higher = longer survival
Procedure, shortened: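 Read-out is survival time, reported as the treated-group measurement over the vehicle-control measurement.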

[1] = dose: 25.0 mg/kg/injection, schedule: Q04DX003 (ip), vehicle: Klucel (hydroxypropylcellulose) (HPC)
[2] = dose: 100.0 mg/kg/injection, schedule: Q01DX001 (ip), vehicle: saline
[3] = dose: 200.0 mg/kg/injection, schedule: Q01DX001 (ip), vehicle: saline
[4] = dose: 400.0 mg/kg/injection, schedule: Q01DX001 (ip), vehicle: saline
[5] = dose: 50.0 mg/kg/injection, schedule: Q01DX001 (ip), vehicle: Klucel (hydroxypropylcellulose) (HPC)
[6] = dose: 100.0 mg/kg/injection, schedule: Q01DX001 (ip), vehicle: Klucel (hydroxypropylcellulose) (HPC)
[7] = dose: 200.0 mg/kg/injection, schedule: Q01DX001 (ip), vehicle: Klucel (hydroxypropylcellulose) (HPC)
[8] = dose: 100.0 mg/kg/injection, schedule: Q01DX009 (ip), vehicle: saline with Tween-80
[9] = dose: 200.0 mg/kg/injection, schedule: Q01DX009 (ip), vehicle: saline with Tween-80
[10] = dose: 400.0 mg/kg/injection, schedule: Q01DX009 (ip), vehicle: saline with Tween-80
[11] = dose: 100.0 mg/kg/injection, schedule: Q01DX009 (ip), vehicle: saline
[12] = dose: 200.0 mg/kg/injection, schedule: Q01DX009 (ip), vehicle: saline
[13] = dose: 100.0 mg/kg/injection, schedule: Q04DX003 (ip), vehicle: saline
[14] = dose: 200.0 mg/kg/injection, schedule: Q04DX003 (ip), vehicle: saline

Measured: T/C

C=CCc1c[nH]c(=O)[nH]c1=O.[Hg]
inactive: dose: 12.5 mg/kg/injection, schedule: Q01DX009 (ip), vehicle: Klucel (hydroxypropylcellulose) (HPC) 93 % of control | dose: 25.0 mg/kg/injection, schedule: Q01DX009 (ip), vehicle: Klucel (hydroxypropylcellulose) (HPC) 98 % of control | [1] 92 % of control | dose: 50.0 mg/kg/injection, schedule: Q04DX003 (ip), vehicle: Klucel (hydroxypropylcellulose) (HPC) 89 % of control | dose: 100.0 mg/kg/injection, schedule: Q04DX003 (ip), vehicle: Klucel (hydroxypropylcellulose) (HPC) 97 % of control

CC1=NN(c2ccccc2)C(=O)C1
inactive: dose: 50.0 mg/kg/injection, schedule: Q01DX001 (ip), vehicle: saline 94 % of control | dose: 100.0 mg/kg/injection, schedule: Q01DX001 (ip), vehicle: saline with Tween-80 104 % of control | [2] 94 % of control | dose: 200.0 mg/kg/injection, schedule: Q01DX001 (ip), vehicle: saline with Tween-80 101 % of control | [3] 90 % of control | dose: 400.0 mg/kg/injection, schedule: Q01DX001 (ip), vehicle: saline with Tween-80 101 % of control | [4] 102 % of control

O=C(/C=C\C=C\c1ccccc1)c1ccc([N+](=O)[O-])cc1
inactive: dose: 100.0 mg/kg/injection, schedule: Q01DX001 (ip), vehicle: carboxymethylcellulose (CMC) 92 % of control and 89 % of control | dose: 100.0 mg/kg/injection, schedule: Q01DX009 (ip), vehicle: carboxymethylcellulose (CMC) 100 % of control and 89 % of control | dose: 100.0 mg/kg/injection, schedule: Q04DX002 (ip), vehicle: gum acacia 95 % of control and 99 % of control | dose: 100.0 mg/kg/injection, schedule: Q04DX003 (ip), vehicle: carboxymethylcellulose (CMC) 93 % of control and 86 % of control | dose: 200.0 mg/kg/injection, schedule: Q01DX001 (ip), vehicle: carboxymethylcellulose (CMC) 95 % of control and 89 % of control | dose: 200.0 mg/kg/injection, schedule: Q01DX009 (ip), vehicle: carboxymethylcellulose (CMC) 90 % of control | dose: 200.0 mg/kg/injection, schedule: Q04DX002 (ip), vehicle: gum acacia 101 % of control and 89 % of control | dose: 200.0 mg/kg/injection, schedule: Q04DX003 (ip), vehicle: carboxymethylcellulose (CMC) 86 % of control and 90 % of control | dose: 400.0 mg/kg/injection, schedule: Q01DX001 (ip), vehicle: carboxymethylcellulose (CMC) 92 % of control and 89 % of control | dose: 400.0 mg/kg/injection, schedule: Q01DX009 (ip), vehicle: carboxymethylcellulose (CMC) 96 % of control and 97 % of control | dose: 400.0 mg/kg/injection, schedule: Q04DX002 (ip), vehicle: gum acacia 92 % of control and 89 % of control | dose: 400.0 mg/kg/injection, schedule: Q04DX003 (ip), vehicle: carboxymethylcellulose (CMC) 90 % of control

N#Cc1nc2c(nc1C#N)CCCC2
inactive: dose: 6.25 mg/kg/injection, schedule: Q04DX003 (ip), vehicle: Klucel (hydroxypropylcellulose) (HPC) 98 % of control | dose: 12.5 mg/kg/injection, schedule: Q04DX003 (ip), vehicle: Klucel (hydroxypropylcellulose) (HPC) 95 % of control | dose: 25.0 mg/kg/injection, schedule: Q01DX001 (ip), vehicle: Klucel (hydroxypropylcellulose) (HPC) 96 % of control | [1] 97 % of control and 102 % of control | [5] 105 % of control | [6] 104 % of control

CC[N+](CC)(CC)CCCCCC[N+](CC)(CC)CC
inactive: dose: 3.15 mg/kg/injection, schedule: Q01DX009 (ip), vehicle: water 113 % of control | dose: 6.25 mg/kg/injection, schedule: Q01DX009 (ip), vehicle: water 103 % of control | dose: 6.25 mg/kg/injection, schedule: Q04DX003 (ip), vehicle: saline 103 % of control | dose: 12.5 mg/kg/injection, schedule: Q01DX009 (ip), vehicle: water 100 % of control and 103 % of control | dose: 12.5 mg/kg/injection, schedule: Q04DX003 (ip), vehicle: saline 104 % of control

NC(=S)NNC(N)=S
inactive: [5] 90 % of control | [6] 97 % of control | [7] 100 % of control

COc1ccc(Sc2cccc3c2C(C)(O)c2c(Sc4ccc(OC)cc4)cccc2C3(C)O)cc1 (configuration not stated)
inactive: [8] 100 % of control | dose: 100.0 mg/kg/injection, schedule: Q04DX003 (ip), vehicle: saline with Tween-80 97 % of control | [9] 92 % of control | dose: 200.0 mg/kg/injection, schedule: Q04DX003 (ip), vehicle: saline with Tween-80 95 % of control | [10] 92 % of control | dose: 400.0 mg/kg/injection, schedule: Q04DX003 (ip), vehicle: saline with Tween-80 93 % of control

O=C(NC(CCl)c1ccccc1)c1ccc([N+](=O)[O-])cc1 (configuration not stated)
inactive: dose: 75.0 mg/kg/injection, schedule: Q04DX003 (ip), vehicle: Klucel (hydroxypropylcellulose) (HPC) 100 % of control | [6] 98 % of control | dose: 150.0 mg/kg/injection, schedule: Q04DX003 (ip), vehicle: Klucel (hydroxypropylcellulose) (HPC) 103 % of control | [7] 104 % of control | dose: 300.0 mg/kg/injection, schedule: Q04DX003 (ip), vehicle: Klucel (hydroxypropylcellulose) (HPC) 97 % of control | dose: 400.0 mg/kg/injection, schedule: Q01DX001 (ip), vehicle: Klucel (hydroxypropylcellulose) (HPC) 104 % of control

C[N-]C.C[N-]C.[Cl][Pt+2][Cl]
inactive: [2] 113 % of control | [11] 100 % of control | [3] 107 % of control | [12] 88 % of control | [4] 119 % of control

COc1c(O)c2c(c3cc(C(=O)N4CCc5c4c(O)c(OC)c4[nH]c(C(=O)N6CC7CC78C6=CC(=O)c6[nH]cc(C)c68)cc54)[nH]c13)CCN2C(N)=O (configuration not stated)
inactive: dose: 6.25 micrograms/kg/injection, schedule: Q01DX009 (ip), vehicle: DMSO 124 % of control | dose: 12.5 micrograms/kg/injection, schedule: Q01DX009 (ip), vehicle: DMSO 111 % of control | dose: 100.0 micrograms/kg/injection, schedule: Q01DX009 (ip), vehicle: DMSO 96 % of control

CC(C)=NNC(=O)c1ccc[n+](Cc2ccccc2)c1
inactive: dose: 75.0 mg/kg/injection, schedule: Q01DX001 (ip), vehicle: saline 102 % of control | dose: 150.0 mg/kg/injection, schedule: Q01DX001 (ip), vehicle: saline 98 % of control | dose: 300.0 mg/kg/injection, schedule: Q01DX001 (ip), vehicle: saline 105 % of control

O=S(NOCc1ccccc1)c1ccc(Cl)cc1 (configuration not stated)
inactive: dose: 100.0 mg/kg/injection, schedule: Q01DX009 (ip), vehicle: Klucel (hydroxypropylcellulose) (HPC) 93 % of control | dose: 200.0 mg/kg/injection, schedule: Q01DX009 (ip), vehicle: Klucel (hydroxypropylcellulose) (HPC) 102 % of control | dose: 400.0 mg/kg/injection, schedule: Q01DX009 (ip), vehicle: Klucel (hydroxypropylcellulose) (HPC) 93 % of control

NC(=O)C(=O)NO
inactive: [2] 97 % of control | [3] 106 % of control | [4] 105 % of control

COc1cc(OC)c(OC)cc1OC
inactive: [8] 95 % of control | [9] 97 % of control

C=C(CCC(C(=O)O)C1CCC2(C)C3=C(CCC12C)C1(C)CCC(O)C(C)(C)C1CC3)C(C)C (configuration not stated)
inactive: [8] 91 % of control | [9] 87 % of control | [10] 94 % of control

CC(=O)Oc1ccc2c(c1)C(=O)CCC=C2
inactive: dose: 50.0 mg/kg/injection, schedule: Q01DX009 (ip), vehicle: other 92 % of control | dose: 200.0 mg/kg/injection, schedule: Q01DX009 (ip), vehicle: other 92 % of control

C=CCC(Cc1ccccc1)NCC1CC1 (configuration not stated)
inactive: dose: 6.25 mg/kg/injection, schedule: Q04DX002 (ip), vehicle: saline with Tween-80 114 % of control | dose: 12.5 mg/kg/injection, schedule: Q04DX002 (ip), vehicle: saline with Tween-80 104 % of control | dose: 25.0 mg/kg/injection, schedule: Q04DX002 (ip), vehicle: saline with Tween-80 111 % of control

[O]=[Hf]=[O]
inactive: [13] 96 % of control | [14] 92 % of control | dose: 400.0 mg/kg/injection, schedule: Q04DX003 (ip), vehicle: saline 97 % of control

N#CN1CCOCC1
inactive: dose: 44.0 mg/kg/injection, schedule: Q01DX Z (ip), vehicle: saline 101 % of control | dose: 66.0 mg/kg/injection, schedule: Q01DX Z (ip), vehicle: saline 91 % of control | [11] 97 % of control | dose: 100.0 mg/kg/injection, schedule: Q01DX Z (ip), vehicle: saline 101 % of control | [13] 95 % of control | [12] 103 % of control | [14] 105 % of control
